Laboratory results as given in publication PMC11648825, “Lasamide Containing Sulfonylpiperazines as Effective Agents for the Management of Glaucoma Associated Symptoms” (Chemmedchem, 2024).
Read-outs that look alike come from different tables or passages of the source.

Tests used:
Test in all cases: stopped-flow CO2 hydrase assay
Format in all cases: biochemical
hCA I = biological target: T1, hCA I (Homo sapiens, UniProt P00915)
T1 construct: gene CA1; purchased from Merck; cytosolic isoform; construct not described
T1 sequence (P00915 2-261): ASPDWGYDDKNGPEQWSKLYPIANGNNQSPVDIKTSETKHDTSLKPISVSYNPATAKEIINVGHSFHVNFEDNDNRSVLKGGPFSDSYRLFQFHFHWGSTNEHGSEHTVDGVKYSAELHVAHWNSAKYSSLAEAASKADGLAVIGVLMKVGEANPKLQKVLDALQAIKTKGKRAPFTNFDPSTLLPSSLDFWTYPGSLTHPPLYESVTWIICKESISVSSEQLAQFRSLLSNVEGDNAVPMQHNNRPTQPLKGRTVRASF
Source text: stopped-flow CO2 hydrase assay on hCA I

hCA XII = biological target: T2, hCA XII (Homo sapiens, UniProt O43570)
T2 construct: gene CA12; recombinant, made in-house
T2 sequence (O43570 25-354 limits assumed): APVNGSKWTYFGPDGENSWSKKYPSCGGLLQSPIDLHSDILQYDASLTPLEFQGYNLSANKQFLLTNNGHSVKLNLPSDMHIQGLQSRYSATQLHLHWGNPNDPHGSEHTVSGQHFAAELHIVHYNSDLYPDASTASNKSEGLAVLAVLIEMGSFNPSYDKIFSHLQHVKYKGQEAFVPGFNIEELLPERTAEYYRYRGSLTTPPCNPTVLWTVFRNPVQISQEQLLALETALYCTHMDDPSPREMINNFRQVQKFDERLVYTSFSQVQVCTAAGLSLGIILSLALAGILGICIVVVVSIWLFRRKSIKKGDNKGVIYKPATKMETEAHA
Source text: stopped-flow CO2 hydrase assay on hCA XII

hCA IX = biological target: T3, hCA IX (Homo sapiens, UniProt Q16790)
T3 construct: gene CA9; recombinant, made in-house
Source text: stopped-flow CO2 hydrase assay on hCA IX

hCA II = biological target: T4, hCA II (Homo sapiens, UniProt P00918)
T4 construct: gene CA2; purchased from Merck; cytosolic isoform; construct not described
Source text: stopped-flow CO2 hydrase assay on hCA II

[1] = CO2 substrate; […] HEPES pH […] Na2SO4, […] min preincubation at room temperature

Row | Compound | Ki (hCA I; [1]) [nM] | Ki (hCA XII; [1]) [nM] | Ki (hCA IX; [1]) [nM] | Ki (hCA II; [1]) [nM] | Ki (hCA I) [nM] | Ki (hCA XII) [nM] | Ki (hCA IX) [nM] | Ki (hCA II) [nM]
1 | NS(=O)(=O)c1cc(C(=O)O)c(Cl)cc1Cl [compound 1, 2,4‐dichloro‐5‐sulfamoylbenzoic acid] | 0.52 | 7.5 | 2.6 | 0.33 | – | – | – | –
2 | CC(C)(C)OC(=O)N1CCN(C(=O)c2cc(S(N)(=O)=O)c(Cl)cc2Cl)CC1 [compound 2, Tert‐butyl 4‐[(2,4‐dichloro‐5‐sulfamoylphenyl)carbonyl]piperazine‐1‐carboxylate] | – | – | – | – | 85.7 | 50.1 | 40.1 | 3.9
3 | NS(=O)(=O)c1cc(C(=O)N2CCN(S(=O)(=O)c3ccccc3)CC2)c(Cl)cc1Cl [compound 4, 2,4‐dichloro‐5‐{[4‐(phenylsulfonyl)piperazin‐1‐yl]carbonyl}benzenesulfonamide] | – | – | – | – | 9.4 | 7.1 | 39.7 | 7.4
4 | Cc1ccc(S(=O)(=O)N2CCN(C(=O)c3cc(S(N)(=O)=O)c(Cl)cc3Cl)CC2)cc1 [compound 5, 2,4‐dichloro‐5‐({4‐[(4‐methylphenyl)sulfonyl]piperazin‐1‐yl}carbonyl)benzenesulfonamide] | – | – | – | – | 64 | 62.4 | 340 | 29
5 | COc1ccc(S(=O)(=O)N2CCN(C(=O)c3cc(S(N)(=O)=O)c(Cl)cc3Cl)CC2)cc1 [compound 6, 2,4‐dichloro‐5‐({4‐[(4‐methoxyphenyl)sulfonyl]piperazin‐1‐yl}carbonyl)benzenesulfonamide] | – | – | – | – | 9.1 | 11.6 | 40.6 | 2.8
6 | NS(=O)(=O)c1cc(C(=O)N2CCN(S(=O)(=O)c3ccc(Cl)cc3)CC2)c(Cl)cc1Cl [compound 7, 2,4‐dichloro‐5‐({4‐[(4‐chlorophenyl)sulfonyl]piperazin‐1‐yl}carbonyl)benzenesulfonamide] | – | – | – | – | 8.2 | 5.2 | 35.8 | 3.4
7 | NS(=O)(=O)c1cc(C(=O)N2CCN(S(=O)(=O)c3ccc([N+](=O)[O-])cc3)CC2)c(Cl)cc1Cl [compound 8, 2,4‐dichloro‐5‐({4‐[(4‐nitrophenyl)sulfonyl]piperazin‐1‐yl}carbonyl)benzenesulfonamide] | – | – | – | – | 79.9 | 7.9 | 39.4 | 71.2

Results, then the compound that gave them:

Row | Ki (hCA I; [1]) [nM] | Ki (hCA XII; [1]) [nM] | Ki (hCA IX; [1]) [nM] | Ki (hCA II; [1]) [nM] | Ki (hCA I) [nM] | Ki (hCA XII) [nM] | Ki (hCA IX) [nM] | Ki (hCA II) [nM] | Compound
8 | – | – | – | – | 5.7 | 6.9 | 152 | 2.6 | Nc1ccc(S(=O)(=O)N2CCN(C(=O)c3cc(S(N)(=O)=O)c(Cl)cc3Cl)CC2)cc1 [compound 9, 5‐({4‐[(4‐aminophenyl)sulfonyl]piperazin‐1‐yl}carbonyl)‐2,4‐dichlorobenzenesulfonamide]
9 | – | – | – | – | 8 | 7.2 | 40.4 | 5.4 | CC(=O)Nc1ccc(S(=O)(=O)N2CCN(C(=O)c3cc(S(N)(=O)=O)c(Cl)cc3Cl)CC2)cc1 [compound 10, 5‐({4‐[(4‐acetylaminophenyl)sulfonyl]piperazin‐1‐yl}carbonyl)‐2,4‐dichlorobenzenesulfonamide]
10 | – | – | – | – | 6.2 | 7.8 | 37.7 | 6.6 | NS(=O)(=O)c1cc(C(=O)N2CCN(S(=O)(=O)c3cccc([N+](=O)[O-])c3)CC2)c(Cl)cc1Cl [compound 11, 2,4‐dichloro‐5‐({4‐[(3‐nitrophenyl)sulfonyl]piperazin‐1‐yl}carbonyl)benzenesulfonamide]
11 | – | – | – | – | 5.8 | 5.4 | 26.3 | 0.8 | Nc1cccc(S(=O)(=O)N2CCN(C(=O)c3cc(S(N)(=O)=O)c(Cl)cc3Cl)CC2)c1 [compound 12, 5‐({4‐[(3‐aminophenyl)sulfonyl]piperazin‐1‐yl}carbonyl)‐2,4‐dichlorobenzenesulfonamide]
12 | – | – | – | – | 7.8 | 7.2 | 28.9 | 0.3 | NS(=O)(=O)c1cc(C(=O)N2CCN(S(=O)(=O)c3ccccc3[N+](=O)[O-])CC2)c(Cl)cc1Cl [compound 13, 2,4‐dichloro‐5‐({4‐[(2‐nitrophenyl)sulfonyl]piperazin‐1‐yl}carbonyl)benzenesulfonamide]
13 | – | – | – | – | 5.4 | 9.6 | 11.4 | 2.8 | Nc1ccccc1S(=O)(=O)N1CCN(C(=O)c2cc(S(N)(=O)=O)c(Cl)cc2Cl)CC1 [compound 14, 5‐({4‐[(2‐aminophenyl)sulfonyl]piperazin‐1‐yl}carbonyl)‐2,4‐dichlorobenzenesulfonamide]
14 | – | – | – | – | 7.1 | 9.1 | 39 | 5.7 | NS(=O)(=O)c1cc(C(=O)N2CCN(S(=O)(=O)c3ccc(Cl)c(Cl)c3)CC2)c(Cl)cc1Cl [compound 15, 2,4‐dichloro‐5‐({4‐[(3,4‐dichlorophenyl)sulfonyl]piperazin‐1‐yl}carbonyl)benzenesulfonamide]
15 | – | – | – | – | 0.54 | 0.87 | 273 | 0.07 | NS(=O)(=O)c1cc(C(=O)N2CCN(S(=O)(=O)Cc3ccccc3)CC2)c(Cl)cc1Cl [compound 16, 5‐{[4‐(benzylsulfonyl)piperazin‐1‐yl]carbonyl}‐2,4‐dichlorobenzenesulfonamide]
